According to ChEMBL document CHEMBL1201862, “PubChem BioAssay data set” (2004):
Activity calls are given as the source filed them.

Key:
[1] = biological target: T1, Fatty acid synthase (Homo sapiens, UniProt P49327); assay: inhibition of human FAS-TE enzyme activity – biochemical, kinetic fluorescence intensity, dose response (AID 624326); type: functional;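 note: rate of fluorescence rise from hydrolysis of a fluorogenic O-methyl fluorescein ester substrate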
[2] = fluconazole-exposed Candida albicans growth modulators – fluorescence, retest, confirmation (AID 2467); type: functional, cell-based
[3] = biological target: X-box-binding protein 1 (Homo sapiens, UniProt P17861); type: functional, Cricetulus griseus;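 note: confirmatory dose-response counter-screen serving a CHOP assay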
Chain of X-box-binding protein 1 (P17861 whole entry): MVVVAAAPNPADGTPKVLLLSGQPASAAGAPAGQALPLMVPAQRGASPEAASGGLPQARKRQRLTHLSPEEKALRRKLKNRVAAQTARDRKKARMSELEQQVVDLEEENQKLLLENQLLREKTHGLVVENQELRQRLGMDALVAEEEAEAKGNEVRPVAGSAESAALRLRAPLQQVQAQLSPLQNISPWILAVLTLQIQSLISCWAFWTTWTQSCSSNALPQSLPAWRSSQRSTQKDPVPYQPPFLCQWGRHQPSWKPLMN

[4] = biological target: T1, Fatty acid synthase; assay: inhibition of human FAS-TE enzyme activity – biochemical, endpoint fluorescence intensity, uHTS hits, dose response (AID 624327); type: functional;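 note: fluorescence from hydrolysis of an O-methyl fluorescein acyl ester substrate by the enzyme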
[5] = biological target: T2, Coagulation factor XII (Homo sapiens, UniProt P00748); type: functional;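 note: activated factor XIIa alpha cleaving a fluorogenic AMC peptide substrate; inhibitor potency from loss of enzyme activity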
T2 sequence (P00748 whole entry): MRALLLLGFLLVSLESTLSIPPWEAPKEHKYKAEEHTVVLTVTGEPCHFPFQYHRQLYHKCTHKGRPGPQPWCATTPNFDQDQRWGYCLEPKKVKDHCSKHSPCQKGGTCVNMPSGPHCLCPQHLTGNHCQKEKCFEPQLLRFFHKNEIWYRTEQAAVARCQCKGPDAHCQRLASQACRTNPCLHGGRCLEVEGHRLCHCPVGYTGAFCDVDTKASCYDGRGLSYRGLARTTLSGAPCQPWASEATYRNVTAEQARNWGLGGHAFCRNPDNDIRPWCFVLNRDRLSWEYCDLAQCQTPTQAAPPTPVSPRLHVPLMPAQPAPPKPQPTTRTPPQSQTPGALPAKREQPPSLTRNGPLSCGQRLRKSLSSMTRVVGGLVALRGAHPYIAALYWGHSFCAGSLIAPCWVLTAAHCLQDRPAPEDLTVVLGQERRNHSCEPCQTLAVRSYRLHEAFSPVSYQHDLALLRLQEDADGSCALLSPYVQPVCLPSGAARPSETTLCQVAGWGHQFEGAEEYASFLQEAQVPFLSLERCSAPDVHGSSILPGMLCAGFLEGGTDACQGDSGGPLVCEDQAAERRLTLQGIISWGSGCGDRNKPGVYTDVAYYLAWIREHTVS

[6] = NIH-3T3 fibroblast cytotoxicity, dose response, cytotoxicity control, cell-based, fluorescence, Alamar Blue, secondary assay (AID 2327); type: functional;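 note: NIH-3T3 mouse fibroblasts cultured with fluconazole at 8 µg/mL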
[7] = biological target: DNA damage-inducible transcript 3 protein (Mus musculus, UniProt P35639); type: functional, Cricetulus griseus
Chain of DNA damage-inducible transcript 3 protein (P35639 whole entry): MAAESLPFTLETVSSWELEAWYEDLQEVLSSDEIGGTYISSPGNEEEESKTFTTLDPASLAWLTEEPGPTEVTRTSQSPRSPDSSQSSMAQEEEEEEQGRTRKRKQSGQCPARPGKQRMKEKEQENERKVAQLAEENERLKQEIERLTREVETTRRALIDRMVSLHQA

[8] = biological target: Cytochrome P450 3A4 (Homo sapiens, UniProt P08684);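 note: CYP3A4 tested as one member of a cytochrome P450 panel screen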
Chain of Cytochrome P450 3A4 (P08684 whole entry): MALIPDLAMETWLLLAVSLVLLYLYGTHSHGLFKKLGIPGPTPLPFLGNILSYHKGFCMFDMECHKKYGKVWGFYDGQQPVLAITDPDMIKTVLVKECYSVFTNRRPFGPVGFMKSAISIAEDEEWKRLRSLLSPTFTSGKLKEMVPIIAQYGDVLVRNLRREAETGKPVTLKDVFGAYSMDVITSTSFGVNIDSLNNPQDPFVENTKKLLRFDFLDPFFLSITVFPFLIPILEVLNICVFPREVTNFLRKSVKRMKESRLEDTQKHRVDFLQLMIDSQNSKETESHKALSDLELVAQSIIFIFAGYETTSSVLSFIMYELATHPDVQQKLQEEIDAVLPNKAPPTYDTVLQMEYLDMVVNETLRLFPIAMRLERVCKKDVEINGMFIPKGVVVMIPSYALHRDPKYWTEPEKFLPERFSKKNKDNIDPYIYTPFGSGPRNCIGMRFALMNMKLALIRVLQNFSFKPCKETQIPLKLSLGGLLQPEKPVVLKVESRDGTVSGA

[9] = biological target: T3, Mucolipin-3 (Homo sapiens, UniProt Q8TDD5); assay: Fluorescence counterscreen assay for […] agonists: dose response cell-based high-throughput screening assay to identify agonists of the transient receptor potential channel ML3 (TRPML3). [Related pubchem assays: 1424, 1448 ]; type: functional
T3 sequence (Q8TDD5 whole entry): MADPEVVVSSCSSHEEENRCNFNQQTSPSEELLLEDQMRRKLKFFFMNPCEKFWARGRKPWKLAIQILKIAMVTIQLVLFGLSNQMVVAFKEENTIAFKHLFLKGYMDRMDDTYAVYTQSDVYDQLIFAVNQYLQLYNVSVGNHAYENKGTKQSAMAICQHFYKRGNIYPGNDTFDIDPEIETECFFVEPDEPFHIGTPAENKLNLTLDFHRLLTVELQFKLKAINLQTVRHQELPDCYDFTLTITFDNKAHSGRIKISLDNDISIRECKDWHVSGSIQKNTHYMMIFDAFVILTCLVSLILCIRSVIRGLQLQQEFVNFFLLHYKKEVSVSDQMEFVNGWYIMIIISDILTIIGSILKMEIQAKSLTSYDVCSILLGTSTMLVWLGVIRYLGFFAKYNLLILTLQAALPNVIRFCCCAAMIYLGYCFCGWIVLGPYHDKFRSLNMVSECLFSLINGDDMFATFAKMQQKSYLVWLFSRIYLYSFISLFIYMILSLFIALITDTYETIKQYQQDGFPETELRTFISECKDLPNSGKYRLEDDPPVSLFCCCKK

[10] = biological target: Ion channel NompC (Danio rerio, UniProt Q7T1G6); assay: Dose response cell-based high-throughput screening assay for agonists of the transient receptor potential channel N1 (TRPN1). [Related pubchem assays (depositor defined):AID1424, AID1448]; type: functional
[11] = loss of viability in HepG2 cells – cell-based, CellTiter-Glo, cherry-picked, cytotoxicity control for Shn3 inhibitor project, dose response (AID 624134); type: functional
[12] = biological target: E3 ubiquitin-protein ligase Mdm2/Protein Mdm4 (Homo sapiens, UniProt O15151+Q00987); assay: disruption of Mdm2/MdmX protein binding – luminescence detection, dose response (AID 504593); type: functional
[13] = reduction of Shn3 3'UTR-driven luciferase in osteoblasts – cell-based, Clone20 osteoblasts, firefly luciferase, cherry-picked, dose response (AID 624132); type: functional;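 note: firefly luciferase luminescence from reporter carrying the Shn3 3'UTR in osteoblasts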
[14] = system: INS1; assay: INS-1E survival protection against cytokine death – cell-based, luminescence, retest, dose response (AID 449756); type: functional; conditions: Rattus norvegicus;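 note: cell death triggered by IL-1 beta plus TNF-alpha plus IFN-gamma mixture; protective hits raise ATP signal compared with cytokine alone wells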
[15] = non-specific 3'UTR reporter inhibition in Clone20-Shn3RL – cell-based, Renilla luciferase, cherry-picked, counter-screen for Shn3 inhibitor project, dose response (AID 624133); type: functional
[16] = A Cell Based Secondary Assay To Explore Cytotoxicity of Compounds that Sensitize Mycobacterium Tuberculosis to Beta-Lactam Antibiotics.; type: functional
[17] = biological target: G-protein coupled receptor 35 (Homo sapiens, UniProt Q9HC97); assay: SAR analysis of Antagonists of the GPR35 Receptor using an Image-Based Assay - Set 5. [Related pubchem assays (depositor defined):AID2058, AID2079]; type: functional
[18] = biological target: G-protein coupled receptor 55 (Homo sapiens, UniProt Q9Y2T6); assay: SAR Analysis of Selective Antagonists of GPR55 using an Image-Based Assay - Set 3. [Related pubchem assays (depositor defined):AID2058, AID2079]; type: functional
Chain of G-protein coupled receptor 55 (Q9Y2T6 whole entry): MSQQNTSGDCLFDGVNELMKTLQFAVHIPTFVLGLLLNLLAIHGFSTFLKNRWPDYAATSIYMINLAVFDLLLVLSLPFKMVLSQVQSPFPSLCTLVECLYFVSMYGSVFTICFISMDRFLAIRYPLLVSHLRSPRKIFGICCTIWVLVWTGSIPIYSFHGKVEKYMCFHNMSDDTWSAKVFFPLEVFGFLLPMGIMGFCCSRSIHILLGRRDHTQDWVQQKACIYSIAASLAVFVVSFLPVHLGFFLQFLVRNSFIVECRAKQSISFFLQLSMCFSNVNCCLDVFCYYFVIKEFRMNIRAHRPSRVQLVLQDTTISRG

[19] = biological target: Alkaline phosphatase, placental type (Homo sapiens, UniProt P05187); assay: human placental alkaline phosphatase inhibition – biochemical, luminescence, confirmation (AID 1512); type: functional
[20] = biological target: Alkaline phosphatase, tissue-nonspecific isozyme (Homo sapiens, UniProt P05186); assay: potency against alkaline phosphatase TNAP – biochemical, luminescent, dose response, SAR follow-up (AID 1056)
Chain of Alkaline phosphatase, tissue-nonspecific isozyme (P05186 whole entry): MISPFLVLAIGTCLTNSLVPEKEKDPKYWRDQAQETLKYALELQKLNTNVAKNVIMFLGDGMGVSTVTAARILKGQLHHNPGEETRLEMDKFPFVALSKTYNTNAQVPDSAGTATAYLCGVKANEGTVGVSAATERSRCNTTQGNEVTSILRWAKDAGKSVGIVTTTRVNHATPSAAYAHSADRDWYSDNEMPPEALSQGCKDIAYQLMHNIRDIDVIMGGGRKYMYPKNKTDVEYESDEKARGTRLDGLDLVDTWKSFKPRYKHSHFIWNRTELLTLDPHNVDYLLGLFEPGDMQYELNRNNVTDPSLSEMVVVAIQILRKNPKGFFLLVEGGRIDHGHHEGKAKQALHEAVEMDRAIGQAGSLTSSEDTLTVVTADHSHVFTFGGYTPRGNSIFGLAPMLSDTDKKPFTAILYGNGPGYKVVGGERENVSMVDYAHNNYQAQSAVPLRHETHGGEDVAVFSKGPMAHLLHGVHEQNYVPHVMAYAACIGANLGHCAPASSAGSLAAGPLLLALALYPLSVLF

[21] = biological target: T4, Kappa-type opioid receptor (Homo sapiens, UniProt P41145); assay: SAR analysis of small molecule antagonists of the kappa opioid receptor via a luminescent beta-arrestin assay - Set 3. [Related pubchem assays (depositor defined):AID1777, AID1778, AID1785, AID1786, AID1966, AID2133, AID2136, AID2285, AID2495]; type: functional
T4 sequence (P41145 whole entry): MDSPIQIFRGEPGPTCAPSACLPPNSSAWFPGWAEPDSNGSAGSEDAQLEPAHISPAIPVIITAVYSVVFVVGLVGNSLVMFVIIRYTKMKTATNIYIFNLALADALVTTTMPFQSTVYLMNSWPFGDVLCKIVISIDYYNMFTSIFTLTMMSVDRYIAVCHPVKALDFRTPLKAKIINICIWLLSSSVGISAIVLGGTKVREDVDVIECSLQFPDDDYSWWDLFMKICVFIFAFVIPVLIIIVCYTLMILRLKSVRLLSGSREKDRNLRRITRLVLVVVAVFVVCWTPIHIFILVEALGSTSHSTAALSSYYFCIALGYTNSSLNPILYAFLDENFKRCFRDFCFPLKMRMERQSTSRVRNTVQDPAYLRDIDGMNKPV

[22] = biological target: Delta-type opioid receptor (Homo sapiens, UniProt P41143); assay: SAR Analysis of Antagonists of the DOR Receptor using an Image-Based Assay - Set 3. [Related pubchem assays (depositor defined):AID1777, AID1785]; type: functional;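 note: U2OS cells expressing DOR1 and beta-arrestin GFP stimulated with 100 nM SNC80; imaging of GFP-tagged beta-arrestin moving into spots after receptor activation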
Chain of Delta-type opioid receptor (P41143 whole entry): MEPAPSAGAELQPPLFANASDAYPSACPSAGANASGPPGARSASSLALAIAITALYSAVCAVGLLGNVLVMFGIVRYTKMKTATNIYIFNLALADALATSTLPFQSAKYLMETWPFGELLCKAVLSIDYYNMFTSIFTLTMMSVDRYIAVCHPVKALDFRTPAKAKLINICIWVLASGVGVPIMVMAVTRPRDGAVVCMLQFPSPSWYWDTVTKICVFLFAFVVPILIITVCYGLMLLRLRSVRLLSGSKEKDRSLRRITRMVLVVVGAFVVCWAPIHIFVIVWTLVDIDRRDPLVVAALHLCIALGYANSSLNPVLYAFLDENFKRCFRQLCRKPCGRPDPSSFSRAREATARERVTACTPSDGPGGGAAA

[23] = biological target: T4, Kappa-type opioid receptor; assay: SAR analysis of small molecule antagonists of the kappa opioid receptor via a luminescent beta-arrestin assay - Set 6. [Related pubchem assays (depositor defined):AID1777, AID1778, AID1785, AID1786, AID1966, AID2133, AID2136, AID2285]; type: functional
[24] = biological target: Mu-type opioid receptor (Homo sapiens, UniProt P35372); assay: SAR Analysis of Antagonists of the MOR Receptor using an Image-Based Assay - Set 3. [Related pubchem assays (depositor defined):AID1777, AID1785, AID1786, AID1966, AID2133, AID2136, AID2284, AID2285, AID2420]; type: functional
[25] = biological target: T4, Kappa-type opioid receptor; assay: SAR analysis of Antagonists of the Kappa Opioid Receptor (KOR) using an Image-Based Assay - Set 4. [Related pubchem assays (depositor defined):AID1777, AID1785]; type: functional

T1 sequence (P49327 whole entry): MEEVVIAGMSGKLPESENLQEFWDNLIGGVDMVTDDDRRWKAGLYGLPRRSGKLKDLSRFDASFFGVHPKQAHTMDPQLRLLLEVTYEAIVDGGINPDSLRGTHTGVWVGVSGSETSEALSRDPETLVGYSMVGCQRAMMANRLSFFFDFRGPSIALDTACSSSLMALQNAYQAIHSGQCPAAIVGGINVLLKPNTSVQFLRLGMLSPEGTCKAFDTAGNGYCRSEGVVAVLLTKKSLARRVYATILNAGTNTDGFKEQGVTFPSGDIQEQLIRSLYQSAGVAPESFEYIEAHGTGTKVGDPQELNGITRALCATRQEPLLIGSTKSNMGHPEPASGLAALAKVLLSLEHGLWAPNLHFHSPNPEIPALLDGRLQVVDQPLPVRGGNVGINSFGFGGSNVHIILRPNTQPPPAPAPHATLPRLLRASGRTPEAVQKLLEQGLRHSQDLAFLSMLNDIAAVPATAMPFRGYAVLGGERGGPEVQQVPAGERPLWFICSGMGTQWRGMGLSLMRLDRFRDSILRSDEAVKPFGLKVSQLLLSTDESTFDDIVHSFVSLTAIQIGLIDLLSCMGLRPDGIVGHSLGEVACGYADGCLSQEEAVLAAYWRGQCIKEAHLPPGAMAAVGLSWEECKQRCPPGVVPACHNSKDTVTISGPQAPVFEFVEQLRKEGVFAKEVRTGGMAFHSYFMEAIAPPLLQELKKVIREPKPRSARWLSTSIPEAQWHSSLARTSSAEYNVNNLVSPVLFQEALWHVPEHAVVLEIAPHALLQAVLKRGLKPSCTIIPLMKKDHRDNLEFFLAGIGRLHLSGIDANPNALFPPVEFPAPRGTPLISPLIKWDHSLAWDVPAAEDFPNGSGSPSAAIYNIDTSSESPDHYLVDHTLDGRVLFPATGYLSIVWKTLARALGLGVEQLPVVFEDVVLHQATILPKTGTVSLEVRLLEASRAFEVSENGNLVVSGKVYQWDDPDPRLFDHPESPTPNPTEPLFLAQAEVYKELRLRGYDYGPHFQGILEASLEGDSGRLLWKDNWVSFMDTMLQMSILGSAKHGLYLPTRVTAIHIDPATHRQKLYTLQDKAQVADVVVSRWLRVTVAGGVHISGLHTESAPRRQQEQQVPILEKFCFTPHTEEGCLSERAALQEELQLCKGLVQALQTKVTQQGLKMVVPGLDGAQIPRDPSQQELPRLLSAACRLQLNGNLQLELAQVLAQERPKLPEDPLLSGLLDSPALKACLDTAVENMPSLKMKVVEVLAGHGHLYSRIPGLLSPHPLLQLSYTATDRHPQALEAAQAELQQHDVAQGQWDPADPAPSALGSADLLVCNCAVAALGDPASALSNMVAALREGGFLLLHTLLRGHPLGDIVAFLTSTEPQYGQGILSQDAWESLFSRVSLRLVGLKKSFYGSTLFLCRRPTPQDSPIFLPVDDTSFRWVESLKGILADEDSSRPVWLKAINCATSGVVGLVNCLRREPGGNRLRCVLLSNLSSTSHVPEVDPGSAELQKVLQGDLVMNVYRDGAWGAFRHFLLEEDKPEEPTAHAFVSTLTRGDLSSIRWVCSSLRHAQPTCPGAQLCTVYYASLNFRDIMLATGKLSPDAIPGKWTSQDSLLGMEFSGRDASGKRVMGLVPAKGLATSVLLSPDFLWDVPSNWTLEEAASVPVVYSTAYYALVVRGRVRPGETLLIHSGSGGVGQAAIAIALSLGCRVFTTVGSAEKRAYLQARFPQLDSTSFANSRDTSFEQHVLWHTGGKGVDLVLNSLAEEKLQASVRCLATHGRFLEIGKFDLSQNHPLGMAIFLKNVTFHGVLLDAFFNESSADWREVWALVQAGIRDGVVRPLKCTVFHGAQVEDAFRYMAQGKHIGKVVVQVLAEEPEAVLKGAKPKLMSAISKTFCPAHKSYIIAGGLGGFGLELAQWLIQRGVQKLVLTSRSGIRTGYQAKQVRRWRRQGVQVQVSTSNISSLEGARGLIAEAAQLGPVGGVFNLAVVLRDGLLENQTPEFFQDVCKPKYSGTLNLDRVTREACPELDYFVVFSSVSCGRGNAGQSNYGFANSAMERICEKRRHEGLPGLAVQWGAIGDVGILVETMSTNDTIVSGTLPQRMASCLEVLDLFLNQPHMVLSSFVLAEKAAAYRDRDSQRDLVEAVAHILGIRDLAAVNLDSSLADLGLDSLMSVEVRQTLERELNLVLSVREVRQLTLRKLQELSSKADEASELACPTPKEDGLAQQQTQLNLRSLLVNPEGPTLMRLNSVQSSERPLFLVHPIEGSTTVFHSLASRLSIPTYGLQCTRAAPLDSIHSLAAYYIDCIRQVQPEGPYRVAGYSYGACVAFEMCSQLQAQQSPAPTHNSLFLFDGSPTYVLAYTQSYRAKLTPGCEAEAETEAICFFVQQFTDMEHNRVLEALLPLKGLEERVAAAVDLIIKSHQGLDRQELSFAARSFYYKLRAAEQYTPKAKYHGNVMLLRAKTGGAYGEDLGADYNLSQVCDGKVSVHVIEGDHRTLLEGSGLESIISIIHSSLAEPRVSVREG

## Cc1cc(C)c(C)c(S(=O)(=O)ON2C(=O)c3ccccc3C2=O)c1C
[1]
  IC50: 417 nM (active)
[2]
  EC50: 4.78 µM (active)
[3]
  Absolute IC50 (XBP1): 10 µM
[4]
  IC50: 610 nM (active)
[5]
  IC50: 12.9 µM (active)
[6]
  EC50: 3.15 µM (inconclusive)
[7]
  Absolute IC50 (CHOP): 10 µM
[8]
  AC50: 39.8 µM (inconclusive)

## N#C/C(=C(/O)C(Cl)(Cl)Cl)c1nc2ccccc2[nH]1
[9]
  EC50: > 29.9 µM (not active)
[10]
  EC50: > 29.9 µM (inactive)

## CCOc1cc(N2CCOCC2)c(OCC)cc1NC(=O)COc1cccc2cccnc12
[2]
  EC50: > 38 µM (not active)
[11]
  AC50: 8.92 µM (active)
[12]
  IC50: 4.99 µM (active)
[6]
  EC50: > 150 µM (inactive)
[13]
  AC50: 2.41 µM (active)
[14]
  AC50: 3.83 µM (active)
[15]
  AC50: 5.04 µM (active)

## COC(=O)c1cnn(-c2ccccc2)c1/C=N/NC(=S)Nc1ccc(Cl)cc1
[16]
  CC50: > 40 µM (active)
[17]
  IC50: 319 nM (active)
[18]
  IC50: > 32 µM (inactive)

## COc1ccc(C(=O)CSc2nc3cc(C)c(C)cc3[nH]2)cc1OC
[19]
  IC50: > 100 µM (inactive)
[20]
  IC50: > 100 µM (inactive)

## O=C(Cn1c(=O)c2cccn2c2cccnc21)NCCCN1CCN(c2ccc(Cl)cc2)CC1
[21]
  IC50: 3.44 µM (active)
[22]
  IC50: > 32 µM (inactive)
[23]
  IC50: 6.93 µM (active)
[24]
  IC50: > 32 µM (inactive)
[25]
  IC50: 96 nM (active)
